Results taken from publication PMC7529893, “Structural basis for substrate recognition and chemical inhibition of oncogenic MAGE ubiquitin ligases” (Nature Communications, 2020).
In brackets after ≈: the same amount, converted by molar mass. Entries after “also recorded” stand apart in the source; their conditions may differ.

How the values were obtained:
[1] = biological target: T1, MAGE-A11 binding to PCF11 (Homo sapiens, UniProt P43364); assay: Pull-down (co-IP) of FLAG-MAGE-A11 with endogenous PCF11 in cell lysate; settings: 100 µM, 24 h, FLAG-MAGE-A11 HEK293FT cell lysates
T1 construct: expressed in transfected cells
T1 sequence (P43364 1-429): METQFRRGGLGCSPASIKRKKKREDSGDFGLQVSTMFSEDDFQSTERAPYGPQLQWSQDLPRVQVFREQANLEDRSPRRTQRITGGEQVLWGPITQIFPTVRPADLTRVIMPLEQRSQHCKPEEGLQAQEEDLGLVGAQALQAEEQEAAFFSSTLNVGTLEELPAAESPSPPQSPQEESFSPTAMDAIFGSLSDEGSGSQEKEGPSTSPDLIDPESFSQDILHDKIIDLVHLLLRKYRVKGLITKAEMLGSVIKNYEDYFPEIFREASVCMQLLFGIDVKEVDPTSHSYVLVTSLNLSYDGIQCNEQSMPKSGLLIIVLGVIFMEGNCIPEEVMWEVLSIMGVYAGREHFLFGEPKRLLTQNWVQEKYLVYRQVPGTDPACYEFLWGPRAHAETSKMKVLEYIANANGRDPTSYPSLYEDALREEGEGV
Method: (§1) HEK293FT cells were plated in 6 cm^2 plates and transfected 24 h later with Effectene (QIAGEN) according to the manufacturer’s protocol. After 48 h, cells were washed and scraped in cold PBS, spun down, and resuspended in lysis buffer (50 mM Tris pH 7.4, 150 mM NaCl, 1 mM DTT, 0.1% (v/v) Triton X-100, 10 mM N-Ethylmaleimide, and 1X protease inhibitor cocktail (Sigma)). Cell lysates were incubated with appropriate antibodies overnight at 4 °C and then with protein A beads for 2 h at 4 °C. Beads were then washed with lysis buffer three times and eluted with 2X SDS sample buffer.
(§2) For western blotting, samples in SDS sample buffer were resolved on SDS-PAGE gels and then transferred to nitrocellulose membranes prior to blocking in TBST with 5% (w/v) milk powder or 3% (w/v) bovine serum albumin and probing with primary and secondary antibodies (GE Healthcare). Primary antibodies were: anti-Myc (Sigma, #C3956), anti-FLAG (Sigma, #F3165), anti-HUWE1 (Novus Biologicals, #NB 100-652), anti-PCF11 (Bethyl Laboratories, #A303-706A), anti-GAPDH (Cell Signaling Technology, #2118), anti-TRIM28 (Abcam, #ab22553), anti-AMPKα1 (Cell Signaling Technology, #2795), and anti-MMS19 (Proteintech, #16015-1-AP) and Tb-anti-GST (Invitrogen, #PV3551). Secondary antibodies were: Donkey Anti-Rabbit IgG (GE Healthcare, NA934V) and Sheep Anti-Mouse IgG (GE Healthcare, NA931V). […]

MAGE-F1:MMS19 = biological target: T2, MAGE-F1:MMS19 (Homo sapiens, UniProt Q9HAY2); assay: Co-IP of MAGE-F1 with MMS19 in cell lysate; format: binding; settings: 100 µM, 24 h
T2 construct: expressed in transfected cells
T2 sequence (Q9HAY2 1-307): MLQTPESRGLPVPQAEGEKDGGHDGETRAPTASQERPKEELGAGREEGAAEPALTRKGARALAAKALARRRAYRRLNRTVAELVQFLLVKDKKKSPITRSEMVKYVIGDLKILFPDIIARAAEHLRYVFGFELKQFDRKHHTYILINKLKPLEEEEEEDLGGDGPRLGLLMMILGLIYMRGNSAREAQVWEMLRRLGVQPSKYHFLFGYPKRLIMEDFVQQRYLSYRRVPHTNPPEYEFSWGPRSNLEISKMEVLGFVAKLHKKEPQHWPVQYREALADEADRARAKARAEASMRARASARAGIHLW
Method: as §1, §2

[2] = Solubility assay (μSOL Evolution); format: physicochemical; settings: citrate phosphate-buffered saline (isotonic) with 1% DMSO; 18 h at RT
Method: Solubility assays were carried out on a Biomek FX lab automation workstation (Beckman Coulter, Inc., Fullerton, CA) using μSOL Evolution software (pION Inc., Woburn, MA). The detailed method is described as follows. 10 µl of 10 mM compound stock (in DMSO) was added to 190 μl 1-propanol to make a reference stock plate. In total, 5 µl from this reference stock plate were mixed with 70 µl 1-propanol and 75 µl citrate phosphate-buffered saline (PBS; isotonic) to make the reference plate, and the UV spectrum (250–500 nm) of the reference plate was read. In total, 6 µl of 10 mM test compound stock was added to 594 µl buffer in a 96-well storage plate and mixed. The storage plate was sealed and incubated at RT for 18 h. The suspension was then filtered through a 96-well filter plate (pION Inc., Woburn, MA). In all, 75 µl of filtrate was mixed with 75 µl 1-propanol to make the sample plate, and the UV spectrum of the sample plate was read. Calculations were carried out with μSOL Evolution software based on the area under the curve (AUC) of the UV spectrum of the sample and reference plates. All compounds were tested in triplicate.

[3] = High throughput Caco-2 permeability; format: in vitro ADME; settings: human, Caco-2, pH 7.4, 10 µmol/l, 2 h; for Papp A→B at 2 h, 10 µmol/l: apical to basolateral; for Papp B→A at 2 h, 10 µmol/l: basolateral to apical
Method: High throughput Caco-2 permeability was performed in the TranswellR 0.4 µm polycarbonate membrane 96-well system with modified methods. Caco-2 cells were maintained at 37 °C in a humidified incubator with an atmosphere of 5% CO2. The cells were cultured in 75 cm^2 flasks with Dulbecco’s Modified Eagle’s Medium (DMEM) containing 10% (v/v) FBS, 1% (v/v) non-essential amino acids (NEAA), 100 units/ml of penicillin, and 100 µg/ml of streptomycin. The Caco-2 cells were seeded onto inserts at a density of 2 × 10^4 cells/insert separately. The medium in the wells was exchanged each other day, and the trans epithelial electrical resistance (TEER) value was measured using an epithelial voltohm meter (Millipore, Billerica, Massachusetts). […] For transport experiments, each cultured monolayer on the 96-well plate was washed twice with a transport buffer (HBSS containing 25 mM HEPES, pH 7.4). The permeability assay was initiated by the addition of each compound solution (10 µmol/l) into inserts (apical side, A) or receivers (basolateral side, B). The Caco-2 cell monolayers were incubated for 2 h at 37 °C. Fractions were collected from receivers (if apical to basal permeability) or inserts (if basal to apical permeability), and concentrations were assessed by UPLC/MS (Waters; Milford, MA). All compounds were tested in triplicates. The A → B (or B → A) apparent permeability coefficients (Papp) of each compound were calculated using the equation, Papp = dQ/dt × 1/AC0, where dQ/dt equals the flux of a drug across the monolayer, A equals the total insert well surface area, and C0 is the initial concentration of substrate in the donor compartment. The efflux ratio was determined by dividing the Papp in the B-A direction by the Papp in the A-B direction.

| Compound | MAGE-A11 binding to PCF11 in cell lysate ([1]; listed as SJ521054) | interaction of MAGE-F1 with MMS19 in cell lysate (MAGE-F1:MMS19; listed as SJ521054) | solubility at 18 h [2] | Papp A→B at 2 h, 10 µmol/l [3] | Papp B→A at 2 h, 10 µmol/l [3] | MAGE-A11 binding to PCF11 in cell lysate ([1]; listed as SJ1008066) | interaction of MAGE-F1 with MMS19 in cell lysate (MAGE-F1:MMS19; listed as SJ1008066) |
| --- | --- | --- | --- | --- | --- | --- | --- |
| FC(F)(F)c1ccc2c(NCCCNCc3ccc4[nH]ccc4c3)ccnc2c1 [SJ000521054-02] | inhibited MAGE-A11 binding to PCF11 in cell lysates | do not disrupt interaction; also recorded: did not disrupt interaction | 26.5 µM (≈ 10.6 µg/mL) | 11.5 ×10⁻⁶ cm/s | 14.2 ×10⁻⁶ cm/s |  |  |
| c1ccc2c(NCCCNCc3ccc4[nH]ccc4c3)ccnc2c1 [SJ001008066-01] |  |  | 37.8 µM (≈ 12.5 µg/mL) | 8.17 ×10⁻⁶ cm/s | 8.09 ×10⁻⁶ cm/s | inhibited MAGE-A11 binding to PCF11 in cell lysates | do not disrupt interaction; also recorded: did not disrupt interaction |
